Assay results from paper PMC5602112 (2017).

Assays:
Test in all cases: single-round in vitro transcription termination
Details in all cases: apparent; co-transcriptional
[1] = test system: metI SAM-I riboswitch transcript, wild-type (RNA, riboswitch) ACUUAGAAAAUUGAAAUCGAUAUUUCUUAUCGUGAGAGGUGGAGGGACUGGCCCUUAGAAACCUCAGCAACCGGCUUGUUUUGCAUUUGCAAAGCGCCAAGGUGCUAAAUCCAGCAAGCGUUUUUUAUGCUUGGAAGAUAAGAAGAAGCGUUAAACCCCUUCUUCUUAUGAAGAAGGGGUUUUUAUUUUGAAAAGGGAAGGUGUCAGCUAUAUGUCACAGCACGUUGAAACGAAAUUAGCUCAAAUUGGGAA
[2] = test system: metI SAM-I riboswitch transcript, U114A:A138U (RNA, riboswitch) ACUUAGAAAAUUGAAAUCGAUAUUUCUUAUCGUGAGAGGUGGAGGGACUGGCCCUUAGAAACCUCAGCAACCGGCUUGUUUUGCAUUUGCAAAGCGCCAAGGUGCUAAAACCAGCAAGCGUUUUUUAUGCUUGGAUGAUAAGAAGAAGCGUUAAACCCCUUCUUCUUAUGAAGAAGGGGUUUUUAUUUUGAAAAGGGAAGGUGUCAGCUAUAUGUCACAGCACGUUGAAACGAAAUUAGCUCAAAUUGGGAA
[3] = test system: metI SAM-I riboswitch transcript, GUU (U114A:A137U:A138U) (RNA, riboswitch) ACUUAGAAAAUUGAAAUCGAUAUUUCUUAUCGUGAGAGGUGGAGGGACUGGCCCUUAGAAACCUCAGCAACCGGCUUGUUUUGCAUUUGCAAAGCGCCAAGGUGCUAAAACCAGCAAGCGUUUUUUAUGCUUGGUUGAUAAGAAGAAGCGUUAAACCCCUUCUUCUUAUGAAGAAGGGGUUUUUAUUUUGAAAAGGGAAGGUGUCAGCUAUAUGUCACAGCACGUUGAAACGAAAUUAGCUCAAAUUGGGAA

For C[S+](CC[C@H](N)C(=O)O)C[C@H]1O[C@@H](n2cnc3c(N)ncnc32)[C@H](O)[C@@H]1O (stereo partly drawn), the T50 [1] was ~ 183 nM, the T50 [2] was ~ 673 nM and the T50 [3] was ~ 1.3 µM.
